Patent US20240209043A1, “NON-ANTIBODY BINDING PEPTIDES AND THEIR ANALOGS DUAL-TARGETING TO PD-1 AND PD-L1, AND USES THEREOF” (ORAL SUBSIDIARY SUN YAT-SEN UNIVERSITY HOSPITAL, priority 2021, published 2024)
“Also recorded” adds a separate entry of the source. Where a SMILES comes first, the peptide text is derived from it. Bridges are numbered along the chain shown (N, C = ends). Roman numbers before positions name the chains, in order. Where no end group is shown, it is not given here.

Assays:
PD-1 [1] = biological target: T1, PD-1 (Homo sapiens, UniProt Q15116); details: background section; read-out: Kd-value of antibody drug targeting PD-1; cited from earlier work
Target sequence in this assay (Q15116 25-288): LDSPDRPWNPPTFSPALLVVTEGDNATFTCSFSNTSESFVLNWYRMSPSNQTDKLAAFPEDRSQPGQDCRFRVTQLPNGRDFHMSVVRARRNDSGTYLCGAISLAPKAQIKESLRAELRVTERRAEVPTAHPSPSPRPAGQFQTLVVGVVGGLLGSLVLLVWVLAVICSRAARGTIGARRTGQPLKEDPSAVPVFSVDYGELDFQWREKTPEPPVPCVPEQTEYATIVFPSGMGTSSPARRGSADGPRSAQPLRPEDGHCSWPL

[2] = test system: peripheral blood derived lymphocytes; test: CCK-8 cytotoxicity assay on PBMCs / iCIKs; type: cell-based, Human; details: CCK-8, 1-64 μM, 24 hours
Method: (§1) Cytotoxicity assay was performed and measured with Cell Counting Kit-8 (CCK-8, Dujindo, Japan). Jurkat cells (each well with 4000 cells), PBMCs (each well with 4000 cells) and Cal27 cells (each well with 2000 cells) were added into a 96-well plate and cultured for 24 hours, respectively. nABP284, nABP386 and nABP486 in a concentration gradient of 1 μM, 2 μM, 3 μM, 4 μM, 8 μM, 16 μM, 32 μM and 64 μM were added into the medium and the cells were cultured for 24 hours in a cell incubator. After that, 10 μl of CCK-8 solution was added to each well and the cells were incubated for 2 hours. VictorX5 Multilabel plate reader (PerkinElmer, Singapore) was used for measuring absorbance of each well at 450 nm. Cell viability (%) was calculated by the following formula:
(§2) Cell viability (%)=[(Sample A−Background A)/(Control A−Blank A)×100%. • Wherein Sample A denotes the absorbance of the experimental well (including cells, CCK-8 solution, medium and peptide diluent) • Background A denotes the absorbance of the background hole (including CCK-8 solution, medium, and peptide diluent without cells); • Control A denotes the absorbance of the control hole (including cells, CCK-8 solution and medium without peptide diluent); and • Blank A denotes the absorbance of the blank hole (including CCK-8 solution and medium without cells and peptide diluent).

Jurkat T cells = test: CCK-8 cytotoxicity assay on Jurkat T cells; type: cell-based, Human; details: CCK-8, 1-64 μM, 24 hours
Method: as §1, §2

[3] = test system: Cal27 cells co-cultured with iCIKs; test: iCIKs-mediated tumor killing efficiency on Cal27 cells (LDH release); type: cell-based, Human; details: 10 μM peptide or 2 ug/ml antibody, iCIKs:Cal27 10 to 1, 6 hours
Method: Human peripheral blood and PBS are mixed at a ratio of 1 to 1, and then the mixture was added to the surface of Ficoll solution in an equal volume and the mixture and Ficoll were kept layered. Density gradient centrifugation (400 g, 20 min) was used for separating components of the peripheral blood. 10 ug/ml of Anti-CD3 monoclonal antibody (T210, TAKARA) was coated on cell culture dishes to cover the mixture at 4° C. overnight. The separated PBMCs were added to the coated dishes in which RPMI1640 medium supplemented with 10% of fetal calf serum, 2000 U/ml of IFN-γ, and 10 ng/ml of IL-2 was added and was changed every three days. After a ten-day culture, the stimulated PBMCs were known as improving cytokine-induced killer cells (iCIKs).
500 U/ml of IFN-γ was used for stimulating Cal27 cells for 48 hours. The iCIKs were incubated with 10 uM of nABP284, 10 μM of nABP386, 10 μM of nABP486, and 2 ug/ml of PD-1 functional monoclonal antibody (J116, eBioscience|ThermoFisher Science) for 1 hour at 37° C., respectively, and the stimulated CAL27 cells were added to the 96-well plate at 1×10^4 cells per well. […] After these cells were co-cultured for 6 hours, a Cyto Tox Non-Radioactive Cytotoxicity Assay kit was used for detecting the level of lactic dehydrogenase (LDH) in the medium and VictorX5 multilabel plate reader (PerkinElmer, Singapore) was used for measuring absorbance at 490 nm.

Cal27 cells = test: CCK-8 cytotoxicity assay on Cal27 cells; type: cell-based, Human; details: CCK-8, 1-64 μM, 24 hours
Method: as §1, §2

PD-L1 [4] = biological target: T2, PD-L1 (Homo sapiens, UniProt Q9NZQ7); details: background section; read-out: Kd-value of antibody drug targeting PD-L1; cited from earlier work
Target sequence in this assay (Q9NZQ7 19-290): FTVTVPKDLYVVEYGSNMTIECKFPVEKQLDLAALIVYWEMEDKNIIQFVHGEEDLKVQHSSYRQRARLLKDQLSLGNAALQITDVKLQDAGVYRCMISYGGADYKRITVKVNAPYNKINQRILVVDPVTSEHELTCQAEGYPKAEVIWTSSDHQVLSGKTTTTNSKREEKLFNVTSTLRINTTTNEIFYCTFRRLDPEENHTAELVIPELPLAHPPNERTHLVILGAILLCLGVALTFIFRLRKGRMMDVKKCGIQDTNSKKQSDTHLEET

PD-1 [5] = biological target: T1, PD-1; test: ka (1/Ms)
Excerpt: Table printed on a drawing sheet, Figure 2E
Title: nABP786 binding to PD-1
(§3) Head of the field: ka (1/Ms)
(§4) The patent's description of the figure: FIG. 2A depicts test results of binding affinity of nABP284 to PD-1 measured by surface plasmon resonance (SPR);
(§5) FIG. 2B depicts test results of binding affinity of nABP386 to PD-1 measured by SPR;
(§6) FIG. 2C depicts test results of binding affinity of nABP486 to PD-1 measured by SPR;
(§7) FIG. 2D depicts test results of binding affinity of nABP486 to PD-L1 measured by SPR;
(§8) FIG. 2E depicts test results of binding affinity of nABP786 to PD-1 measured by SPR;
(§9) FIG. 2F depicts test results of binding affinity of nABP786 to PD-L1 measured by SPR;
First copying reader's note: Inset table of SPR kinetic constants printed above the sensorgram; the target is PD-1.
Where the first naming reader finds the target: table_title: nABP786 binding to PD-1
Target sequence in this assay (Q15116 25-288 limits assumed): as the sequence (Q15116 25-288) above

PD-L1 [6] = biological target: T2, PD-L1; test: ka (1/Ms)
Excerpt: Table printed on a drawing sheet, Figure 2F
Title: nABP786 binding to PD-L1
as §3, §4, §5, §6, §7, §8, §9
Target sequence in this assay (Q9NZQ7 19-290 limits assumed): as the sequence (Q9NZQ7 19-290) above
First copying reader's note: Inset table of SPR kinetic constants printed above the sensorgram; the target is PD-L1.
Where the first naming reader finds the target: table_title: nABP786 binding to PD-L1

Compound: Cemiplimab
- Kd (PD-1 [1]): 6.11 nM

Compound: I: SRLKEIANSPTQFWRMVARNTLGNHAKQSLNIEHA / II: SHHHRL (amide I:27-II:C) [nABP386]
- toxicity on peripheral blood derived lymphocytes [2]: non-toxic and side effects
- direct cytotoxicity to Jurkat T cells (Jurkat T cells): no directly cytotoxicity; also recorded: non-toxic and side effects
- iCIKs-mediated cytotoxicity (killing ability) for Cal27 cells [3]: can enhance the tumor killing effect of lymphocytes on tumor cells
- direct cytotoxicity to Cal27 cells (Cal27 cells): no directly cytotoxicity; also recorded: non-toxic and side effects

Compound: Durvalumab
- Kd (PD-L1 [4]): 0.667 nM

Compound: Atezolizumab
- Kd (PD-L1 [4]): 0.4 nM

Compound: Cindilimab
- Kd (PD-1 [1]): 0.25 nM

Compound: Toripalimab
- Kd (PD-1 [1]): 0.324 nM

Compound: I: SHHHRLKLKEIANSPTQFWRMVARNTLGNGAKQSLNIEHA / II: SHHHRL (amide I:7-II:C) [nABP486]
- toxicity on peripheral blood derived lymphocytes [2]: non-toxic and side effects
- direct cytotoxicity to Jurkat T cells (Jurkat T cells): no directly cytotoxicity; also recorded: non-toxic and side effects
- iCIKs-mediated cytotoxicity (killing ability) for Cal27 cells [3]: significantly increased; also recorded: significantly reverse the immune escape of tongue cancer cells; also recorded: superior to functional anti-PD-1 antibody; also recorded: can enhance the tumor killing effect of lymphocytes on tumor cells
- direct cytotoxicity to Cal27 cells (Cal27 cells): no directly cytotoxicity; also recorded: no direct killing ability to Cal27 cells; also recorded: non-toxic and side effects

Compound: CC[C@H](C)[C@H](NC(=O)[C@H](CCC(=O)O)NC(=O)[C@H](CCCCN)NC(=O)[C@H](CC(C)C)NC(=O)[C@H](CCCCNC(=O)[C@H](CC(C)C)NC(=O)[C@H](CCCNC(=N)N)NC(=O)[C@H](Cc1c[nH]cn1)NC(=O)[C@H](Cc1c[nH]cn1)NC(=O)[C@H](Cc1c[nH]cn1)NC(=O)[C@@H](N)CO)NC(=O)[C@H](CC(C)C)NC(=O)[C@H](CCCNC(=N)N)NC(=O)[C@H](Cc1c[nH]cn1)NC(=O)[C@H](Cc1c[nH]cn1)NC(=O)[C@H](Cc1c[nH]cn1)NC(=O)[C@@H](N)CO)C(=O)N[C@@H](C)C(=O)N[C@@H](CC(N)=O)C(=O)N[C@@H](CS)C(=O)N[C@@H](CO)C(=O)N1CCC[C@H]1C(=O)N[C@H](C(=O)N[C@@H](CCC(N)=O)C(=O)N[C@@H](Cc1ccccc1)C(=O)N[C@@H](CCCCN)C(=O)N[C@@H](CS)C(=O)O)[C@@H](C)O [nABP786] (HELM PEPTIDE1{S.H.H.H.R.L.K.L.K.E.I.A.N.C.S.P.T.Q.F.K.C}|PEPTIDE2{S.H.H.H.R.L}$PEPTIDE1,PEPTIDE2,7:R3-6:R2$$$V2.0)
- ka (PD-1 [5]): 77600 M⁻¹ s⁻¹
- ka (PD-L1 [6]): 29000 M⁻¹ s⁻¹
